Four molecules from patent US11358969B2, “Indole AHR inhibitors and uses thereof” (Ikena Oncology, Inc., priority 2017, dated 2022) can be followed below.

In one data set the target is T1, AHR (UniProt P35869).
T1 construct: IC50
T1 sequence (P35869 1-848): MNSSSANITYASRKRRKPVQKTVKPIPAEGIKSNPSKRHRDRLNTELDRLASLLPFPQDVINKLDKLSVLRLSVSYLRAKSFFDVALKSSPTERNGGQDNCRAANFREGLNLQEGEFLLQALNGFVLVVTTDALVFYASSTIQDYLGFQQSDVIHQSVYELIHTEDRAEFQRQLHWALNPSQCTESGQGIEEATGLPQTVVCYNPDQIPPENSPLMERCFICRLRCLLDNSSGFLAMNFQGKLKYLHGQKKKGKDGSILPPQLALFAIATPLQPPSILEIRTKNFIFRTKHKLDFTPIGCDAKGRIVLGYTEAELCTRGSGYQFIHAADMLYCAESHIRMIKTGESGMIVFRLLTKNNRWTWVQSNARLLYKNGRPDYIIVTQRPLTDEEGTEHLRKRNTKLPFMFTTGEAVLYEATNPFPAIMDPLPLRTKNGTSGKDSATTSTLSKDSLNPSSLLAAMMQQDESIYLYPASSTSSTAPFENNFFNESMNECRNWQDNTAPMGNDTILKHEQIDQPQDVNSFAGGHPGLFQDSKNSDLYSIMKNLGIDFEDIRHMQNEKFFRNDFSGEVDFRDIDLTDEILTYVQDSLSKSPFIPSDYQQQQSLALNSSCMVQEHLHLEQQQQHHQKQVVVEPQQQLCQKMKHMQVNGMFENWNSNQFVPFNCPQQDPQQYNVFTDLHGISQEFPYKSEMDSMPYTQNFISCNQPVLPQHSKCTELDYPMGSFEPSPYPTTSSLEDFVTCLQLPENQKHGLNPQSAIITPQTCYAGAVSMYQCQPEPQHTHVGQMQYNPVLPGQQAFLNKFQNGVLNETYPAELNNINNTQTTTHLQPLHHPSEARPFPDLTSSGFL
Put plainly: DRE-Luciferase Reporter Assay (Alternate Method) (Example 1B). The class given is cell-based, murine or human. As to conditions: cell line and AHR activating ligand not specified. (In general: In a reporter assay the amount or activity of a reporter protein is the signal.)

Data set [1] can be described thus: Mouse Pharmacokinetic Study (Example 1C). It is filed as in vivo. As to conditions: mouse, plasma, CD-1 mice; for Vd: read-out: Vdss. An outline of the steps: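 CD-1 mice dosed intravenously or by oral gavage; plasma sampled at 0.167, 0.5, 1, 2, 4, 6, 12 and 24 h post-dose. Samples analyzed by LC/MS/MS (MRM, positive mode) against a plasma standard curve of 1.0–3000 ng/mL; PK parameters from non-compartmental analysis.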

A short description of data set [2]: In Vitro Mouse liver S9 Metabolic Stability Assay (Example 1D). The class given is in vitro ADME. As to conditions: CD-1 mouse liver S9, 1 μM compound, 1 mg/mL S9 protein, 37° C., NADPH regenerating system, UDPGA, PAPS. In outline: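 Compound at 1 μM final (0.1% DMSO) incubated at 37° C with pooled CD-1 mouse liver S9 (1 mg/mL protein) plus NADPH-regenerating system, UDPGA and PAPS. Samples at 0 and 60 min quenched in cold acetonitrile with internal standard; LC-MS/MS analyte/IS peak-area ratios give % remaining at 60 min.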

Broadly, the IC50 is the concentration needed to halve the response being measured. A word on the bioavailability: it is dose-corrected exposure relative to a reference, in per cent. A high value points to good availability. A word on the AUC(0-inf): it is the area under the concentration-time curve extrapolated to infinity. As a reminder, the AUC(0-t) is exposure summed from dosing to a finite time, without extrapolation to infinity. A low value points to less exposure. What is called clearance is the volume of plasma or blood freed of the substance per unit of time. Broadly, the half-life is how long it takes for the measured level to halve. A high value points to slow loss. The Cmax is the peak of the concentration-time curve. Usually Tmax stands for the time from dosing to the highest level. `CC(C)c1cnn2c(NCCc3c[nH]c4ccccc34)cc(-c3cncc(F)c3)nc12` [I-2, N-(2-(1H-indol-3-yl)ethyl)-5-(5-fluoropyridin-3-yl)-3-isopropylpyrazolo[1,5-a]pyrimidin-7-amine] came in with an IC50 on AHR below 500 nM. In data set [1] (po, 30 mg/kg), this molecule returned a bioavailability of 12%, an AUC(0-inf) of 743 ng·h/mL, an AUC(0-t) of 730 ng·h/mL and a Cmax of 182 ng/mL. For the same molecule, in data set [1] (po, 30 mg/kg), the Tmax was found to be 0.2 h and the half-life was 3.9 h. In data set [1] (iv, 3 mg/kg), the total exposure AUC(0-inf) was 610 ng·h/mL, the AUC(0-t) is 554 ng·h/mL, the clearance worked out at 82 mL/min/kg and the half-life is 1.99 h. In data set [1] (iv, 3 mg/kg), the Vd was found to be 9.6 L/kg. For the same molecule, the “Mouse S9 Stability: % Remaining After 60 Minutes” value in data set [2] was 13%.
`CC(C)c1cnn2c(N[C@@H]3CCc4[nH]c5ccccc5c4C3)nc(-c3cncc(F)c3)nc12` [I-40, (3R)—N-[2-(5-Fluoro-3-pyridyl)-8-isopropyl-pyrazolo[1,5-a][1,3,5]triazin-4-yl]-2,3,4,9-tetrahydro-1H-carbazol-3-amine] gave an IC50 at AHR below 500 nM. In data set [1] (po, 30 mg/kg), this molecule yielded a bioavailability of 75%, an AUC(0-inf) of 9140 ng·h/mL, an AUC(0-t) of 7560 ng·h/mL and a Cmax of 853 ng/mL. In data set [1] (po, 30 mg/kg), the Tmax stood at 2 h and the half-life is 8.8 h. In data set [1] (iv, 3 mg/kg), this molecule had an AUC(0-inf) of 1210 ng·h/mL, an AUC(0-t) of 1070 ng·h/mL, a clearance of 41.2 mL/min/kg and a half-life of 8.4 h. The Vd in data set [1] (iv, 3 mg/kg) is 24 L/kg. For the same molecule, in data set [2], the “Mouse S9 Stability: % Remaining After 60 Minutes” value was determined as 87%.
In data set [1] (po, 30 mg/kg), `Cc1cnn2c(NCCc3c[nH]c4ccccc34)cc(-c3cncc(F)c3)nc12` [I-70, 5-(5-Fluoro-3-pyridyl)-N-[2-(1H-indol-3-yl)ethyl]-3-methyl-pyrazolo[1,5-a]pyrimidin-7-amine] displayed a bioavailability of 26%, an AUC(0-inf) of 1990 ng·h/mL, an AUC(0-t) of 1940 ng·h/mL and a Cmax of 900 ng/mL. For the same molecule, in data set [1] (po, 30 mg/kg), the time to peak (Tmax) came out at 0.5 h and the half-life is 2.26 h. Also, in data set [1] (iv, 3 mg/kg), the AUC(0-inf) is 872 ng·h/mL, the AUC(0-t) turned out to be 862 ng·h/mL, the clearance came to 54.9 mL/min/kg and the half-life is 1.08 h. In addition, the Vd in data set [1] (iv, 3 mg/kg) was found to be 3.2 L/kg. In addition, the “Mouse S9 Stability: % Remaining After 60 Minutes” value in data set [2] worked out at 0%.
`Cc1cnn2c(N[C@@H]3CCc4[nH]c5ccccc5c4C3)nc(-c3cncc(F)c3)nc12` [I-201, (3R)—N-[2-(5-fluoro-3-pyridyl)-8-methyl-pyrazolo[1,5-a][1,3,5]triazin-4-yl]-2,3,4,9-tetrahydro-1H-carbazol-3-amine] showed an IC50 at AHR below 500 nM. In data set [1] (po, 30 mg/kg), this molecule yielded a bioavailability of 79%, an AUC(0-inf) of 10600 ng·h/mL, an AUC(0-t) of 9650 ng·h/mL and a Cmax of 1410 ng/mL. In data set [1] (po, 30 mg/kg), the Tmax is 1 h and the half-life was 7.16 h. In addition, in data set [1] (iv, 3 mg/kg), the AUC(0-inf) is 1330 ng·h/mL, the AUC(0-t) was found to be 1200 ng·h/mL, the clearance is 37.5 mL/min/kg and the half-life is 8.52 h. In data set [1] (iv, 3 mg/kg), the Vd amounted to 19.6 L/kg. The “Mouse S9 Stability: % Remaining After 60 Minutes” value in data set [2] was determined as 34%.
